Structures can show the parent of a compound that is named as a salt.
Tests used:
human NK2 receptor = target: T1, human NK2 receptor (Homo sapiens, UniProt P21452); assay: Neurokinin A (NKA) Receptor-binding Assay (Test A); details: typically found
T1 construct: expressed in transfected cells; host or cells: Mouse Erythroleukemia (MEL) cells
T1 sequence (P21452 1-398): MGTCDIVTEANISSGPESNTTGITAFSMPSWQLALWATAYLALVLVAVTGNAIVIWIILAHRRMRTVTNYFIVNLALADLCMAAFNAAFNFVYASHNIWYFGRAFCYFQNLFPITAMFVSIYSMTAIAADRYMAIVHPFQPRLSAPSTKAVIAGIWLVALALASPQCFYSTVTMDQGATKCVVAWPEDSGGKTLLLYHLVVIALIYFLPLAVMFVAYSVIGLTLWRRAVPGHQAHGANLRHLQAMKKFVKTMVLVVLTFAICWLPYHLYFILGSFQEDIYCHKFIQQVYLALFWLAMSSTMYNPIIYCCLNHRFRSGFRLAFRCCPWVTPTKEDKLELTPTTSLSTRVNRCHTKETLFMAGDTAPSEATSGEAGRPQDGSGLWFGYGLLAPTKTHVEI
Description: Neurokinin A (NKA) Receptor-binding Assay (Test A)

guinea pig trachea = target: T2, guinea pig trachea (Cavia porcellus, UniProt Q64077); assay: Guinea Pig Assay (Test B), functional assay in guinea pig trachea, antagonism of NKA or [β-ala8]-NKA(4-10) contraction; assay type: cell-based; details: -log molar KB, agonist NKA or [β-ala8]-NKA(4-10), 30 min incubation
T2 construct: The trachea are removed, trimmed of excess tissue and divided into two segments; from tissue; host or cells: guinea pig trachea rings
T2 sequence (Q64077 1-402): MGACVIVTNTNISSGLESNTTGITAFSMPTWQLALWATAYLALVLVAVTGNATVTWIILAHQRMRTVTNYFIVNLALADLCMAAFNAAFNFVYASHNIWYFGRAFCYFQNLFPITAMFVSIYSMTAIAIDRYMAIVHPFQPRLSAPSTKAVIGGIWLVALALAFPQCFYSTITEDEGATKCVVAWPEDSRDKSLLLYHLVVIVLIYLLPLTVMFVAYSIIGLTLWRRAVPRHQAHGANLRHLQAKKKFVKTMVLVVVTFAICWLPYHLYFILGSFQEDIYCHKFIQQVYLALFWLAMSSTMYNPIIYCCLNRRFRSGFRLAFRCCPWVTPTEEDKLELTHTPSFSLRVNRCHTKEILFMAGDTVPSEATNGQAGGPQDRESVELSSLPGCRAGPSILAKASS
Experimental: Guinea Pig Assay (Test B)
The chosen agonist is refered to as AG throughout the description.
Male guinea pigs are killed by a sharp blow to the back of the head. The trachea are removed, trimmed of excess tissue and divided into two segments. Each segment is suspended as a ring between stainless steel stirrups in water-jacketed (37.5° C.) tissue baths containing a physiological salt solution of the following composition (mM): NaCl, 119; KCl 4.6; CaCl2, 1.8; MgCl2, 0.5; NaH2 PO4, 1; NaHCO3, 25; glucose, 11; thiorphan, 0.001; and indomethacin, 0.005; gassed continuously with 95% O2 -%5 CO2. […] Contractile responses are measured on a Grass polygraph via Grass FT-03 force transducers.
Tissues are challenged repetitively with a single concentration of AG (10 nM) with intervening 30 min periods with washing to allow the tension to return to baseline levels. […] Percent inhibition is determined when a Compound produces a statistically significant (p<0.05) reduction of the contraction and is calculated using the second contractile response as 100%.
Potencies of selected Compounds are evaluated by calculating apparent dissociation constants (KB) for each concentration tested using the standard equation: […]
where dose ratio=antilog[(AG -log molar EC50 without Compound)--(AG -log molar EC50 with Compound)]. The KB values may be converted to the negative logarithms and expressed as -log molar KB (i.e. pKB). […]

Row | Compound | Ki (human NK2 receptor) | Kb (guinea pig trachea)
1 | O[C@@H](c1nccn1-c1ccccc1)[C@H](CCN1CCC(O)(c2ccccc2)CC1)c1ccc(Cl)c(Cl)c1 (racemic) [Example 2, 2-[(1RS,2RS)-2-(3,4-Dichlorophenyl)-1-hydroxy-4-(4-hydroxy-4-phenylpiperidino)butyl]-1-phenylimidazole Hydrochloride] | 34 nM | 
2 | O=C(c1c[nH]nc1-c1ccccc1)C(CCN1CCC(O)(c2ccccc2)CC1)c1ccc(Cl)c(Cl)c1 (centres unmarked) [Example 3, 4-[2-(3,4-Dichlorophenyl)-4-(4-hydroxy-4-phenylpiperidino)butyroyl]-3-phenyl-1H-pyrazole] |  | 251 nM

— patent US5635509A, “Piperidine derivatives useful as neurokinin antagonists” (Zeneca Limited, priority 1994, dated 1997)
